Measured values from ChEMBL document CHEMBL1137970, “N,N-Dialkylated 4-(4-arylsulfonylpiperazine-1-carbonyl)-benzamidines and 4-((4-arylsulfonyl)-2-oxo-piperazin-1-ylmethyl)-benzamidines as potent factor Xa inhibitors” (Bioorg Med Chem Lett, 2004).

system: not listed separately; test: Half life in rats; format: ADME, organism-based; settings: rat, in vivo

| half-life [h] | Compound |
| --- | --- |
| 7.8 | CN1CCN=C1c1ccc(C(=O)N2CCN(S(=O)(=O)c3cc4cc(Cl)ccc4[nH]3)CC2)cc1 |

system: not listed separately; test: Volume of distribution in rats; format: ADME, organism-based; settings: rat, in vivo

| Vd [L/kg] | Compound |
| --- | --- |
| 28.9 | CN1CCN=C1c1ccc(C(=O)N2CCN(S(=O)(=O)c3cc4cc(Cl)ccc4[nH]3)CC2)cc1 |

system: not listed separately; test: Oral bioavailability in rat; format: ADME, organism-based; settings: in vivo

| bioavailability [%] | Compound |
| --- | --- |
| 1.4 | CN1CCN=C1c1ccc(C(=O)N2CCN(S(=O)(=O)c3cc4cc(Cl)ccc4[nH]3)CC2)cc1 |
| 4.1 | CN(C)C(=N)c1ccc(CN2CCN(S(=O)(=O)c3cc4cc(Cl)ccc4[nH]3)CC2=O)cc1 |
| < 1 | CN(C)C(=N)c1ccc(CN2CCN(S(=O)(=O)c3cc4ccc(Cl)cc4s3)CC2=O)cc1 |

system: not listed separately; test: Plasma clearance in rats; format: ADME, organism-based; settings: rat

| clearance [mL/min/kg] | Compound |
| --- | --- |
| 42.9 | CN1CCN=C1c1ccc(C(=O)N2CCN(S(=O)(=O)c3cc4cc(Cl)ccc4[nH]3)CC2)cc1 |

target: Coagulation factor X (Homo sapiens, UniProt P00742); test: In vitro inhibitory activity against Coagulation factor X was determined; settings: not given
Sequence (P00742 41-179 limits assumed): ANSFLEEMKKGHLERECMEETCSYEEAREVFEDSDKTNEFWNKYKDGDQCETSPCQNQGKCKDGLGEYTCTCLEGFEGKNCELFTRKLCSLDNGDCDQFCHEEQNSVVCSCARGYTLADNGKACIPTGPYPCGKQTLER
Sequence (P00742 235-488 limits assumed): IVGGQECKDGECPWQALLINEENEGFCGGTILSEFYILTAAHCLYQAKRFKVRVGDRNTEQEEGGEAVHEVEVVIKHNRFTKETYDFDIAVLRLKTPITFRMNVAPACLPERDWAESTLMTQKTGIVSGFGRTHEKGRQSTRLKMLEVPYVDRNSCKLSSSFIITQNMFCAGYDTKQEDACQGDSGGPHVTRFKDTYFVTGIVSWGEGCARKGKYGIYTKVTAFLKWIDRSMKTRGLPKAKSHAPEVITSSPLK

| IC50 [nM] | Compound |
| --- | --- |
| 7 | CN1CCN=C1c1ccc(C(=O)N2CCN(S(=O)(=O)c3cc4cc(Cl)ccc4[nH]3)CC2CC(=O)N2CCCCC2)cc1 (stereo not given) |
| 12 | CN1CCN=C1c1ccc(C(=O)N2CCN(S(=O)(=O)c3cc4cc(Cl)ccc4[nH]3)CC2C(=O)O)cc1 (stereo not given) |
| 27 | COC(=O)C1CN(S(=O)(=O)c2cc3cc(Cl)ccc3[nH]2)CCN1C(=O)c1ccc(C2=NCCN2C)cc1 (stereo not given) |
| 11 | CNC(=O)CC1CN(S(=O)(=O)c2cc3cc(Cl)ccc3[nH]2)CCN1C(=O)c1ccc(C2=NCCN2C)cc1 (stereo not given) |
| 270 | CN1CCN=C1c1ccc(C(=O)N2CCN(S(=O)(=O)c3cc4cc(Cl)ccc4s3)CC2)cc1 |
| > 11000 | CN1CCN=C1c1ccc(C(=O)N2CCN(C(=O)c3cc4cc(Cl)ccc4[nH]3)CC2)cc1 |
| 590 | CN1CCN=C1c1ccc(C(=O)N2CCN(S(=O)(=O)c3cc4ccc(Cl)cc4[nH]3)CC2)cc1 |
| 24 | N=C(c1ccc(C(=O)N2CCN(S(=O)(=O)c3cc4cc(Cl)ccc4[nH]3)CC2)cc1)N1CCC1 |
| 18 | CN1CCN=C1c1ccc(C(=O)N2CCN(S(=O)(=O)c3cc4cc(Cl)ccc4[nH]3)CC2CC(N)=O)cc1 (stereo not given) |
| 10 | CN(C)C(=O)CC1CN(S(=O)(=O)c2cc3cc(Cl)ccc3[nH]2)CCN1C(=O)c1ccc(C2=NCCN2C)cc1 (stereo not given) |
| 7 | CN1CCN=C1c1ccc(C(=O)N2CCN(S(=O)(=O)c3cc4cc(Cl)ccc4[nH]3)CC2CC(=O)N2CCCC2)cc1 (stereo not given) |
| 3 | COC(=O)CC1CN(S(=O)(=O)c2cc3cc(Cl)ccc3[nH]2)CCN1C(=O)c1ccc(C2=NCCN2C)cc1 (stereo not given) |
| 9 | CN1CCN=C1c1ccc(C(=O)N2CCN(S(=O)(=O)c3cc4ccc(Cl)cc4s3)CC2)cc1 |
| 20 | CN(C)C(=N)c1ccc(C(=O)N2CCN(S(=O)(=O)c3cc4cc(Cl)ccc4[nH]3)CC2)cc1 |
| 41 | CN1CCN=C1c1ccc(C(=O)N2CCN(S(=O)(=O)c3cc4cc(Cl)ccc4[nH]3)CC2CC(=O)O)cc1 (stereo not given) |
| 11 | CN1CCN=C1c1ccc(C(=O)N2CCN(S(=O)(=O)c3cc4cc(Cl)ccc4[nH]3)CC2CC(=O)N2CCOCC2)cc1 (stereo not given) |
| 12 | CCN1CCN=C1c1ccc(C(=O)N2CCN(S(=O)(=O)c3cc4cc(Cl)ccc4[nH]3)CC2)cc1 |
| 5 | CN1CCN=C1c1ccc(C(=O)N2CCN(S(=O)(=O)c3cc4cc(Cl)ccc4[nH]3)CC2CC(=O)N2CCC2)cc1 (stereo not given) |

Further lines, the molecule ahead of its results:

| Compound | IC50 [nM] |
| --- | --- |
| COC(=O)C1CCN(C(=O)CC2CN(S(=O)(=O)c3cc4ccc(Cl)cc4s3)CCN2C(=O)c2ccc(C3=NCCN3C)cc2)CC1 (stereo not given) | 8 |
| CN(C)C(=O)CC1CN(S(=O)(=O)c2cc3ccc(Cl)cc3s2)CCN1C(=O)c1ccc(C2=NCCN2C)cc1 (stereo not given) | 7 |
| CN1CCN=C1c1ccc(CN2CCN(S(=O)(=O)c3cc4cc(Cl)ccc4[nH]3)CC2=O)cc1 | 57 |
| N=C(c1ccc(CN2CCN(S(=O)(=O)c3cc4ccc(Cl)cc4s3)CC2=O)cc1)N1CCCCC1 | 100 |
| CN1CCN=C1c1ccc(CN2CCN(S(=O)(=O)c3cc4ccc(Cl)cc4s3)CC2=O)cc1 | 45 |
| CNC(=N)c1ccc(C(=O)N2CCN(S(=O)(=O)c3ccc4cc(Br)ccc4c3)CC2)cc1 | 230 |
| N=C(c1ccc(C(=O)N2CCN(S(=O)(=O)c3cc4cc(Cl)ccc4[nH]3)CC2)cc1)N1CCCCC1 | 120 |
| N=C(c1ccc(CN2CCN(S(=O)(=O)c3cc4cc(Cl)ccc4[nH]3)CC2=O)cc1)N1CCC1 | 8 |
| O=C(c1ccc(C2=NCCCN2)cc1)N1CCN(S(=O)(=O)c2ccc3cc(Br)ccc3c2)CC1 | 1300 |
| CCN(C)C(=N)c1ccc(C(=O)N2CCN(S(=O)(=O)c3cc4cc(Cl)ccc4[nH]3)CC2)cc1 | 27 |
| N=C(c1ccc(C(=O)N2CCN(S(=O)(=O)c3cc4ccc(Cl)cc4s3)CC2)cc1)N1CCC1 | 25 |
| N=C(c1ccc(C(=O)N2CCN(S(=O)(=O)c3cc4ccc(Cl)cc4s3)CC2)cc1)N1CCCCC1 | 71 |
| N=C(c1ccc(C(=O)N2CCN(S(=O)(=O)c3ccc4cc(Br)ccc4c3)CC2)cc1)N1CCCCC1 | 160 |
| CCN1CCN=C1c1ccc(C(=O)N2CCN(S(=O)(=O)c3ccc4cc(Br)ccc4c3)CC2)cc1 | 67 |
| CN1CCN=C1c1ccc(C(=O)N2CCN(S(=O)(=O)c3cc4ccc(Cl)cc4s3)CC2CC(=O)N2CCCCC2)cc1 (stereo not given) | 6 |
| CN(C)C(=N)c1ccc(C(=O)N2CCN(S(=O)(=O)c3ccc4cc(Br)ccc4c3)CC2)cc1 | 230 |
| N=C(c1ccc(C(=O)N2CCN(S(=O)(=O)c3ccc4cc(Br)ccc4c3)CC2)cc1)N1CCOCC1 | 640 |
| N=C(c1ccc(CN2CCN(S(=O)(=O)c3cc4cc(Cl)ccc4[nH]3)CC2=O)cc1)N1CCCC1 | 240 |
| N=C(N)c1ccc(C(=O)N2CCN(S(=O)(=O)c3ccc4cc(Br)ccc4c3)CC2)cc1 | 64 |
| N=C(c1ccc(C(=O)N2CCN(S(=O)(=O)c3cc4cc(Cl)ccc4[nH]3)CC2)cc1)N1CCCC1 | 84 |
| N=C(c1ccc(CN2CCN(S(=O)(=O)c3cc4ccc(Cl)cc4s3)CC2=O)cc1)N1CCC1 | 11 |
| COC(=O)CC1CN(S(=O)(=O)c2cc3ccc(Cl)cc3s2)CCN1C(=O)c1ccc(C2=NCCN2C)cc1 (stereo not given) | 13 |

| Compound | IC50 [nM] |
| --- | --- |
| CN(C)C(=N)c1ccc(CN2CCN(S(=O)(=O)c3cc4cc(Cl)ccc4[nH]3)CC2=O)cc1 | 37 |
| N=C(c1ccc(CN2CCN(S(=O)(=O)c3cc4ccc(Cl)cc4s3)CC2=O)cc1)N1CCCC1 | 140 |
| CN1CCN=C1c1ccc(C(=O)N2CCN(S(=O)(=O)c3cc4ccc(Cl)cc4s3)CC2CC(=O)N2CCOCC2)cc1 (stereo not given) | 15 |
| N=C(c1ccc(CN2CCN(S(=O)(=O)c3cc4cc(Cl)ccc4[nH]3)CC2=O)cc1)N1CCCCC1 | 150 |
| CN1CCN=C1c1ccc(C(=O)N2CCN(S(=O)(=O)c3cc4ccc(Cl)cc4s3)CC2CC(=O)N2CCC2)cc1 (stereo not given) | 10 |
| CN1CCN=C1c1ccc(C(=O)N2CCN(S(=O)(=O)c3ccc4cc(Br)ccc4c3)CC2)cc1 | 31 |
| O=C(c1ccc(C2=NCCN2)cc1)N1CCN(S(=O)(=O)c2ccc3cc(Br)ccc3c2)CC1 | 530 |
| CN1CCN=C1c1ccc(C(=O)N2CCN(S(=O)(=O)c3cc4ccc(Cl)cc4s3)CC2CC(=O)N2CCC(C(=O)O)CC2)cc1 (stereo not given) | 8 |
| CN1CCN=C1c1ccc(C(=O)N2CCN(S(=O)(=O)c3cc4cc(Cl)ccc4[nH]3)CC2CC(=O)N2CCN(c3ccncc3)CC2)cc1 (stereo not given) | 8 |
| N=C(c1ccc(C(=O)N2CCN(S(=O)(=O)c3cc4ccc(Cl)cc4s3)CC2)cc1)N1CCCC1 | 70 |
| CN1CCN=C1c1ccc(C(=O)N2CCN(S(=O)(=O)c3cc4ccc(Cl)cc4s3)CC2CC(=O)N2CCCC2)cc1 (stereo not given) | 6 |
| C#CCN(C)C(=O)CC1CN(S(=O)(=O)c2cc3ccc(Cl)cc3s2)CCN1C(=O)c1ccc(C2=NCCN2C)cc1 (stereo not given) | 19 |
| C#CCN(C)C(=O)CC1CN(S(=O)(=O)c2cc3cc(Cl)ccc3[nH]2)CCN1C(=O)c1ccc(C2=NCCN2C)cc1 (stereo not given) | 14 |
| N=C(c1ccc(C(=O)N2CCN(S(=O)(=O)c3ccc4cc(Br)ccc4c3)CC2)cc1)N1CCCC1 | 390 |
| CN1CCCN=C1c1ccc(C(=O)N2CCN(S(=O)(=O)c3ccc4cc(Br)ccc4c3)CC2)cc1 | 430 |
| CCN(C)C(=N)c1ccc(C(=O)N2CCN(S(=O)(=O)c3cc4ccc(Cl)cc4s3)CC2)cc1 | 90 |
| CN1CCN=C1c1ccc(C(=O)N2CCN(S(=O)(=O)c3cc4ccc(Cl)cc4s3)CC2CC(=O)O)cc1 (stereo not given) | 29 |
| CN1CCN=C1c1ccc(C(=O)N2CCN(S(=O)(=O)c3cc4ccc(Cl)cc4s3)CC2CC(=O)N2CCN(c3ccncc3)CC2)cc1 (stereo not given) | 8 |
| CN(C)C(=N)c1ccc(CN2CCN(S(=O)(=O)c3cc4ccc(Cl)cc4s3)CC2=O)cc1 | 30 |
| CCN1CCN=C1c1ccc(C(=O)N2CCN(S(=O)(=O)c3cc4ccc(Cl)cc4s3)CC2)cc1 | 36 |
| CN(C)C(=N)c1ccc(C(=O)N2CCN(S(=O)(=O)c3cc4ccc(Cl)cc4s3)CC2)cc1 | 27 |

target: Kallikrein-1 (Homo sapiens, UniProt P06870); test: In vitro inhibitory activity against kallikrein was determined; settings: not given
Sequence (P06870 whole entry): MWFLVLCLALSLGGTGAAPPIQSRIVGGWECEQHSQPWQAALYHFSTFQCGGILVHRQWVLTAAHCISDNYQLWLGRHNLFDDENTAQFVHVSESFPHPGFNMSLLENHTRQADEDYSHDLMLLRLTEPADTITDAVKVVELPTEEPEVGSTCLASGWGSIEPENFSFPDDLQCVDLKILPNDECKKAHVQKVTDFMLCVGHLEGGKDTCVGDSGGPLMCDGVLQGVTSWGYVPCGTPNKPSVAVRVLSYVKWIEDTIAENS

| IC50 [nM] | Compound |
| --- | --- |
| 5800 | CN1CCN=C1c1ccc(C(=O)N2CCN(S(=O)(=O)c3cc4cc(Cl)ccc4[nH]3)CC2)cc1 |

target: Prothrombin (Homo sapiens, UniProt P00734); settings: not given

| IC50 [nM] | Compound |
| --- | --- |
| 3.2 | CN1CCN=C1c1ccc(C(=O)N2CCN(S(=O)(=O)c3cc4ccc(Cl)cc4s3)CC2CC(=O)N2CCOCC2)cc1 (stereo not given) |
| > 10 | CN1CCN=C1c1ccc(C(=O)N2CCN(S(=O)(=O)c3cc4ccc(Cl)cc4s3)CC2)cc1 |
